Measurements reported in ChEMBL document CHEMBL5291721, “A preclinical secondary pharmacology resource illuminates target-adverse drug reaction associations of marketed drugs” (Nat Commun, 2023).
Values joined by “and” are separate entries in the source; they are usually repeats but may differ in a detail not shown here. Identical values can stand only once.

Key:
[1] = target: T1, Gastrin/cholecystokinin type B receptor (Homo sapiens, UniProt P32239)
T1 sequence (P32239 whole entry): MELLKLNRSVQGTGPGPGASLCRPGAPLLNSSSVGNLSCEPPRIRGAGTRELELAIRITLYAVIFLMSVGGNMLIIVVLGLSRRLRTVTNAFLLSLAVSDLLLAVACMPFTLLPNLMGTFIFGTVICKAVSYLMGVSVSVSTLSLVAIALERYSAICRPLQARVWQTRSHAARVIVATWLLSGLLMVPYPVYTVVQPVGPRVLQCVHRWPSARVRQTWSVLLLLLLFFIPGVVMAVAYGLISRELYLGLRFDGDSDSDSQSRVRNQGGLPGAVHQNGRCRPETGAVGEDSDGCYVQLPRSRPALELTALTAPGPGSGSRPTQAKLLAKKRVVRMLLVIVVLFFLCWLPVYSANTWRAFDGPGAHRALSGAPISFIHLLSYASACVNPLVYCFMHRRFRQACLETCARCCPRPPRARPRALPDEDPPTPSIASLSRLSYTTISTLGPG

[2] = target: Voltage-dependent L-type calcium channel subunit alpha-1C (Rattus norvegicus, UniProt P22002); assay type: functional
Vasopressin V1a receptor = Vasopressin V1a receptor (Homo sapiens, UniProt P37288)
[3] = target: 5-hydroxytryptamine receptor 2B (Homo sapiens, UniProt P41595); assay type: functional, cell-based
[4] = target: Sodium-dependent serotonin transporter (Homo sapiens, UniProt P31645)
[5] = target: T2, Alpha-1A adrenergic receptor (Homo sapiens, UniProt P35348); assay type: functional, cell-based
T2 sequence (P35348 whole entry): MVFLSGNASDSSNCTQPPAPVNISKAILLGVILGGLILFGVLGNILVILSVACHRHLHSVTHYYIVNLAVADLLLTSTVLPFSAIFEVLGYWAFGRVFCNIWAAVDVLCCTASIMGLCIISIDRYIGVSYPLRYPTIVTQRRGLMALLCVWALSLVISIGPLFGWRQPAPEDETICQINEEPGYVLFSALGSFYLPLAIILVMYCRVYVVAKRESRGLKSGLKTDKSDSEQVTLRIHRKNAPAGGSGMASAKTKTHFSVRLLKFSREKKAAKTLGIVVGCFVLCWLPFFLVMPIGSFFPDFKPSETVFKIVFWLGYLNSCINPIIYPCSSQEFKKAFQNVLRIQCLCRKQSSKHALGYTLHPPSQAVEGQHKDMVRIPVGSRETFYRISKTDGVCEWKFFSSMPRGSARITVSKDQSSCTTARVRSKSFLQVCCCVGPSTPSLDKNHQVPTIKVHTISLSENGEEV

[6] = target: Beta-2 adrenergic receptor (Homo sapiens, UniProt P07550)
[7] = target: cGMP-inhibited 3',5'-cyclic phosphodiesterase 3A (Homo sapiens, UniProt Q14432); assay type: functional
Endothelin-1 receptor = target: T3, Endothelin-1 receptor (Homo sapiens, UniProt P25101)
T3 sequence (P25101 whole entry): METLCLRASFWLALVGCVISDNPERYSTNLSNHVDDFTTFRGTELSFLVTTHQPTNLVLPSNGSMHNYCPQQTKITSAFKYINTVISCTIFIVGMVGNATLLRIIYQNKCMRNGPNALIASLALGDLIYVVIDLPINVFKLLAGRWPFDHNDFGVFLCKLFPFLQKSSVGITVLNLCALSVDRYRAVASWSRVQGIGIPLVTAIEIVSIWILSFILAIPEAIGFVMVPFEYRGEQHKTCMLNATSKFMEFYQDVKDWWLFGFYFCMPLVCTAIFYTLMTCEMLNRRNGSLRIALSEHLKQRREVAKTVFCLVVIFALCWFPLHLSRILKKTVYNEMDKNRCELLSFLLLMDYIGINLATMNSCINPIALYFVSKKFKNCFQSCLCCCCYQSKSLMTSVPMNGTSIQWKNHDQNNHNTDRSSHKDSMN

Adenosine receptor A1 = target: T4, Adenosine receptor A1 (Homo sapiens, UniProt P30542)
T4 sequence (P30542 whole entry): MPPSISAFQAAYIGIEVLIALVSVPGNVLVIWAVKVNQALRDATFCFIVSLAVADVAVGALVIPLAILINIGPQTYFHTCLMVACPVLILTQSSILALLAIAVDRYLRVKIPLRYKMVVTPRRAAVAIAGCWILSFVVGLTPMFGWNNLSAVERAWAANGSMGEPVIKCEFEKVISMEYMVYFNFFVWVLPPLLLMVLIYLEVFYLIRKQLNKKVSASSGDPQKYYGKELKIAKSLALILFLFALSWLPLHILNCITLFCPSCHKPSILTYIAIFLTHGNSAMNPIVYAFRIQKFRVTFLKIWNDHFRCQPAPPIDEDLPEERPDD

Motilin receptor = Motilin receptor (Homo sapiens, UniProt O43193)
Cannabinoid receptor 1 = Cannabinoid receptor 1 (Homo sapiens, UniProt P21554); assay type: functional, cell-based
[8] = target: 5-hydroxytryptamine receptor 2A (Homo sapiens, UniProt P28223); assay type: functional, cell-based
[9] = target: T5, Muscarinic acetylcholine receptor M2 (Homo sapiens, UniProt P08172); assay type: functional, cell-based
T5 sequence (P08172 whole entry): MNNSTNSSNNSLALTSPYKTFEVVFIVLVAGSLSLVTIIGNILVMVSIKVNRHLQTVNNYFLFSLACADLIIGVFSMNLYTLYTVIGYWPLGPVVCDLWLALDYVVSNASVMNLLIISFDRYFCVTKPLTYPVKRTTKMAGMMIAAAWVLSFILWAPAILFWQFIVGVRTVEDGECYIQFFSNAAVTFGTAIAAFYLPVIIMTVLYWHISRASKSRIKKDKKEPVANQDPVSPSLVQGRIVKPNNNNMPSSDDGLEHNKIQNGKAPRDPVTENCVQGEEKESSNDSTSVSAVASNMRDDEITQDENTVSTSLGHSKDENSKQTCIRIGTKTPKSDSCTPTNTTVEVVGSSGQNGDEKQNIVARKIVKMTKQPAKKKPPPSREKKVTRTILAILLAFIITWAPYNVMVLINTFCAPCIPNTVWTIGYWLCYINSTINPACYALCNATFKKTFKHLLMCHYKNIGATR

Vasopressin V2 receptor = Vasopressin V2 receptor (Homo sapiens, UniProt P30518)
Histamine H2 receptor = Histamine H2 receptor (Homo sapiens, UniProt P25021); assay type: functional, cell-based
[10] = target: Sodium-dependent dopamine transporter (Homo sapiens, UniProt Q01959)
Further: assay procedure not described here.

Voltage-dependent L-type calcium channel subunit alpha-1C, sequence (P22002 whole entry): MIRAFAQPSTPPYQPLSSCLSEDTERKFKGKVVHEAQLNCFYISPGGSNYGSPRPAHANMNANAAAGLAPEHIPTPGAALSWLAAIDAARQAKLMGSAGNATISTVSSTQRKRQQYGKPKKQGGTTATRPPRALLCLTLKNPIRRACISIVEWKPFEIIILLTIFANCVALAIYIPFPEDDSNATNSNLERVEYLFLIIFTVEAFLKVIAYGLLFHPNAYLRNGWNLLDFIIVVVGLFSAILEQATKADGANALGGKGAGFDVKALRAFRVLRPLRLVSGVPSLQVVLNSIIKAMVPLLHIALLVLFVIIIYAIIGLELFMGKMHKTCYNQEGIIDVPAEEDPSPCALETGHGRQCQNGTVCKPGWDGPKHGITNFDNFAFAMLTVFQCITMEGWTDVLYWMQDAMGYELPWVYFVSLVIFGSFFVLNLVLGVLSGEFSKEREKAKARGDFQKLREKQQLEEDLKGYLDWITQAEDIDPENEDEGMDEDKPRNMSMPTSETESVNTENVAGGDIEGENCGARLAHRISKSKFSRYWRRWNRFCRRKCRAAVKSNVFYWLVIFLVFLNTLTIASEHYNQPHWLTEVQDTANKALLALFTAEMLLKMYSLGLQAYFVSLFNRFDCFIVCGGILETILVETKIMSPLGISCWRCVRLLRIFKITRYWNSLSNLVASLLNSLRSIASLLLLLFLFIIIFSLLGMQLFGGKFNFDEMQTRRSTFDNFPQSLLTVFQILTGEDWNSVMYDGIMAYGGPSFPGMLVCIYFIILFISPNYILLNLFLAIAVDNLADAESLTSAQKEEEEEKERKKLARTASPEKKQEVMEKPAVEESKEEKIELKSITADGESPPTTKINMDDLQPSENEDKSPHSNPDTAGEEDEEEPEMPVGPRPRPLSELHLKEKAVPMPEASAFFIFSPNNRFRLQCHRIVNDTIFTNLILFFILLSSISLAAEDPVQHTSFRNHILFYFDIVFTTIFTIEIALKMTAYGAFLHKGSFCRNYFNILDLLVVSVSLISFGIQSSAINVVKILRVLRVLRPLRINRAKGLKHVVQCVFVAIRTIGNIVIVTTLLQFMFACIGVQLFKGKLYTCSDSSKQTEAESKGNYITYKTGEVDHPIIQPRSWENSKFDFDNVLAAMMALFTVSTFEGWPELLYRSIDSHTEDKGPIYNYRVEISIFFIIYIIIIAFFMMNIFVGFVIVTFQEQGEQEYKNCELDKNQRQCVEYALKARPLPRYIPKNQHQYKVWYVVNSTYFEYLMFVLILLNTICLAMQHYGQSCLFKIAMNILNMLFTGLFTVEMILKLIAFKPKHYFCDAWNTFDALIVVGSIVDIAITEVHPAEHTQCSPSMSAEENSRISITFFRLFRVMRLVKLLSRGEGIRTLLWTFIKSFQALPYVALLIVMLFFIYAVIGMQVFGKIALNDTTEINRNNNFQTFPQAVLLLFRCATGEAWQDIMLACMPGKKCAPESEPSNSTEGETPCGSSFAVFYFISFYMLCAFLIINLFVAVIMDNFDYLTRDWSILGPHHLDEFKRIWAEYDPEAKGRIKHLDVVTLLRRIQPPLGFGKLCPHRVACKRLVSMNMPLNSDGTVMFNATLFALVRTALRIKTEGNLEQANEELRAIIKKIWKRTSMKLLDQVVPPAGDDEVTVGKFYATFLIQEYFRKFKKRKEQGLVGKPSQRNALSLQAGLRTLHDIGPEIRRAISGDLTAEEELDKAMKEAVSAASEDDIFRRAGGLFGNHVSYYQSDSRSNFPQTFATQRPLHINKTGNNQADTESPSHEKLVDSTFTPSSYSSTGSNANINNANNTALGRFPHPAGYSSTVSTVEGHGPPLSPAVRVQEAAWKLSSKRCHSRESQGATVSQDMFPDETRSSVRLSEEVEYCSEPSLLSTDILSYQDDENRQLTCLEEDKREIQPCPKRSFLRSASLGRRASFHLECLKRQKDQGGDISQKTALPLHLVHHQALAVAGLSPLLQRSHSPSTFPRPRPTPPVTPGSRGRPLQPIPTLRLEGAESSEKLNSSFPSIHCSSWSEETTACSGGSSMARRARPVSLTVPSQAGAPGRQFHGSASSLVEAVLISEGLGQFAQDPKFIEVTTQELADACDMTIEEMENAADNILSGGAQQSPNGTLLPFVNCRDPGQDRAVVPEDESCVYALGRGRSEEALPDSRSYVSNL
Beta-2 adrenergic receptor, sequence (P07550 whole entry): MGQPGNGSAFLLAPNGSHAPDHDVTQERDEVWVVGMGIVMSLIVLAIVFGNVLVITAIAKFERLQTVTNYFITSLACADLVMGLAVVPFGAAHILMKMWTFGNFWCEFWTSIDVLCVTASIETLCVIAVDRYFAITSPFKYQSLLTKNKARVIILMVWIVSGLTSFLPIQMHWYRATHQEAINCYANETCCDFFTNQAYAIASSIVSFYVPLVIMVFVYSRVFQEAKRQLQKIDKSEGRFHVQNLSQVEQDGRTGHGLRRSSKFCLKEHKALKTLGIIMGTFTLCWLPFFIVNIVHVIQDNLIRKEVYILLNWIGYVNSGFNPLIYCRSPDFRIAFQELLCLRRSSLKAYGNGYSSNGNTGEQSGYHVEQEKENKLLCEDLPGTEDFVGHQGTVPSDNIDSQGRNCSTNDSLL
Histamine H2 receptor, sequence (P25021 whole entry): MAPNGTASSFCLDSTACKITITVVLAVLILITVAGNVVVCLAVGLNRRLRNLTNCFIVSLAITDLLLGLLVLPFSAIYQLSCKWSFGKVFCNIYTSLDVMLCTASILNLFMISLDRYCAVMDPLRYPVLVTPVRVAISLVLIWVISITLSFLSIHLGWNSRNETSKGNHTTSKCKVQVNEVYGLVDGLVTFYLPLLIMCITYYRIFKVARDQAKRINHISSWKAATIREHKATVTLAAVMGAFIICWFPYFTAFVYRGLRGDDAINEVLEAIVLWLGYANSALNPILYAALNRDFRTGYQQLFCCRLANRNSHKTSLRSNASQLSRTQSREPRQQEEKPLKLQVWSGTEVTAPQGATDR
Sodium-dependent serotonin transporter, sequence (P31645 whole entry): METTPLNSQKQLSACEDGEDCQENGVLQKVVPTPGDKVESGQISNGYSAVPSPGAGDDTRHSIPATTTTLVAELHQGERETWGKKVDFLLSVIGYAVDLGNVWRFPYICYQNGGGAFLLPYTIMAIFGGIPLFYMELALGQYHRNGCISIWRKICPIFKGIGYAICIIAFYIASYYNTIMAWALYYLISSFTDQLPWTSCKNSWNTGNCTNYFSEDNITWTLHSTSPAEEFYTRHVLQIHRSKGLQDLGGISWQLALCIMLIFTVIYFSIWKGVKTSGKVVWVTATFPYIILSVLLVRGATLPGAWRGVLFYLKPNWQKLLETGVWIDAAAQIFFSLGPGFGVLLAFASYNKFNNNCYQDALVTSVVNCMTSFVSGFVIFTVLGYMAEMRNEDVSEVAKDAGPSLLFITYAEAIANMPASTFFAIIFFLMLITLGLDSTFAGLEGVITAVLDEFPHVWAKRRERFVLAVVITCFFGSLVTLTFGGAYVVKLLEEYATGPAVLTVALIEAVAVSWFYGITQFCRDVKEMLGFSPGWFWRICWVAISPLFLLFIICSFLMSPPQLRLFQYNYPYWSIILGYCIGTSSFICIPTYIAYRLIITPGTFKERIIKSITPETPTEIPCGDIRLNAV
5-hydroxytryptamine receptor 2A, sequence (P28223 whole entry): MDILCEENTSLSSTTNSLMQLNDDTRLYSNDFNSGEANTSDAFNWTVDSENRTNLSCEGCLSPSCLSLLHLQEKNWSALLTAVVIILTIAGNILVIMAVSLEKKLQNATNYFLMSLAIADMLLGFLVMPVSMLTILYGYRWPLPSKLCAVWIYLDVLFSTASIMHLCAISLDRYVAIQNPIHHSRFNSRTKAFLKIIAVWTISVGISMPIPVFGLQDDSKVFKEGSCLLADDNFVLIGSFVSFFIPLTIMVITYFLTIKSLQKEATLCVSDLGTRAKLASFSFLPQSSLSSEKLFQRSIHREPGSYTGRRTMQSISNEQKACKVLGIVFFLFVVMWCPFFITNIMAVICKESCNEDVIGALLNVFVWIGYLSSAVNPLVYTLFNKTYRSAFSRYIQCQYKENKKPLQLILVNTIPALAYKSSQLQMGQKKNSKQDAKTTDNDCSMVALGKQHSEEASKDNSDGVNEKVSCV
Cannabinoid receptor 1, sequence (P21554 whole entry): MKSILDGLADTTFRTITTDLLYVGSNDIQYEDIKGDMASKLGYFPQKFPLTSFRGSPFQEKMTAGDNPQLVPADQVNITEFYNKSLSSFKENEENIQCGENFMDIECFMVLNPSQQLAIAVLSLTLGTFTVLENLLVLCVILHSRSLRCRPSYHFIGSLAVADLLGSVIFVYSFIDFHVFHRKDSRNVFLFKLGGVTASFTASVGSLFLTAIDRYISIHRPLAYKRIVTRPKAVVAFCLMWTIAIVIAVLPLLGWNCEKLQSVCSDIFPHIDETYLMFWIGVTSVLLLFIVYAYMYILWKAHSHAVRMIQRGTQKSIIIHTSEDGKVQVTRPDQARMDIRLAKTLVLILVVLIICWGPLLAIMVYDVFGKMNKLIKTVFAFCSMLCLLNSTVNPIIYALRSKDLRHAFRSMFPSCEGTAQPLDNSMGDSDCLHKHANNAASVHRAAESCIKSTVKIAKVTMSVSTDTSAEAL
Vasopressin V2 receptor, sequence (P30518 whole entry): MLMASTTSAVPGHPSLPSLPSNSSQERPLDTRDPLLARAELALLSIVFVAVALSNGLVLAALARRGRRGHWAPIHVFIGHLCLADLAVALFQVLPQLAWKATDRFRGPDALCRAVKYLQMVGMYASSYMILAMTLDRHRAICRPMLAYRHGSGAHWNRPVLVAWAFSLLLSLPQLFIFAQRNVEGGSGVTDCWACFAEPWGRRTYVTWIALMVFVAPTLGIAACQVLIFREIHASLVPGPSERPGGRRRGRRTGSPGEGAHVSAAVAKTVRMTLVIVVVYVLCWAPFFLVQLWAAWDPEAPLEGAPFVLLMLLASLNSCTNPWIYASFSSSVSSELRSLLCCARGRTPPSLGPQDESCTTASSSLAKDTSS

SMILES | AC50 [1] | AC50 [2] | AC50 (Vasopressin V1a receptor) | AC50 [3] | AC50 [4] | AC50 [5] | AC50 [6] | AC50 [7] | AC50 (Endothelin-1 receptor) | AC50 (Adenosine receptor A1) | AC50 (Motilin receptor) | AC50 (Cannabinoid receptor 1) | AC50 [8] | AC50 [9] | AC50 (Vasopressin V2 receptor) | AC50 (Histamine H2 receptor) | AC50 [10]
N#Cc1ccccc1-c1cc(-c2ccccn2)cn(-c2ccccc2)c1=O | > 30 µM | > 30 µM | > 30 µM | > 30 µM | > 30 µM | > 30 µM | > 30 µM | > 30 µM | > 30 µM | > 30 µM | > 30 µM | > 30 µM | > 30 µM | > 30 µM | > 30 µM | > 30 µM | > 30 µM
N=C(N)NCCCCCCC(=O)NC(O)C(=O)NCCCCNCCCN (stereo not given) | > 30 µM | > 30 µM | > 30 µM | > 30 µM | > 30 µM | > 30 µM | > 30 µM | > 30 µM | > 30 µM | > 30 µM | > 30 µM | > 30 µM | > 30 µM | > 30 µM | > 30 µM | > 30 µM | > 30 µM
O=C(CCCN1CCC(n2c(O)nc3ccccc32)CC1)c1ccc(F)cc1 [BENPERIDOL] | > 30 µM | > 30 µM | > 30 µM | > 30 µM | > 30 µM | > 30 µM | 8.6 µM | > 30 µM | > 30 µM | > 30 µM | 26 µM | > 30 µM | > 30 µM | > 30 µM | > 30 µM | > 30 µM | 11 µM
CCN(CC)C(=O)C1CN2CCc3cc(OC)c(OC)cc3C2CC1OC(C)=O (stereo not given) [BENZQUINAMIDE] | > 30 µM | > 10 µM | > 30 µM | > 30 µM | > 30 µM | > 30 µM | > 10 µM | > 30 µM | > 30 µM | > 30 µM | > 30 µM | > 30 µM | > 30 µM | > 30 µM | > 30 µM | > 30 µM | > 30 µM
CCC(=O)OCC(=O)[C@@]1(OC(=O)CC)[C@@H](C)C[C@H]2[C@@H]3CCC4=CC(=O)C=C[C@]4(C)[C@@]3(F)[C@@H](O)C[C@@]21C [BETAMETHASONE DIPROPIONATE] | > 30 µM | > 30 µM | > 30 µM | > 30 µM | > 30 µM | > 30 µM | > 30 µM | > 30 µM | > 30 µM | > 30 µM | > 30 µM | > 30 µM | > 30 µM | > 30 µM | > 30 µM | > 30 µM | > 30 µM
CCOC(=O)NNc1ccc(N(CC)CC(C)O)nn1 (stereo not given) [CADRALAZINE] | > 30 µM | > 30 µM | > 30 µM | > 30 µM | > 30 µM | > 30 µM | > 30 µM | > 30 µM | > 30 µM | > 30 µM | > 30 µM | > 30 µM | > 30 µM | > 30 µM | > 30 µM | > 30 µM | > 30 µM
CC(CCc1ccccc1)NC(C)C(O)c1ccc(O)cc1 (stereo not given) [NYLIDRIN] | > 30 µM | > 10 µM | > 10 µM | > 10 µM | > 10 µM | – | 0.218 µM | > 30 µM | > 30 µM | > 30 µM | > 10 µM | > 30 µM | > 30 µM | > 10 µM | > 30 µM | > 10 µM | 1.44 µM
CC[N+]1(C)CCCC(OC(=O)C(O)(c2ccccc2)c2ccccc2)C1 (stereo not given) [PIPENZOLATE] | > 30 µM | > 30 µM | > 30 µM | > 30 µM | > 30 µM | – | > 30 µM | > 30 µM | > 30 µM | > 30 µM | > 30 µM | > 30 µM | > 30 µM | > 30 µM | > 30 µM | > 30 µM | > 30 µM
NC(=O)CCC/N=C(\c1ccc(Cl)cc1)c1cc(F)ccc1O [PROGABIDE] | – | > 10 µM | > 10 µM | > 10 µM | > 10 µM | > 30 µM | > 10 µM | > 30 µM | – | > 10 µM | > 10 µM | > 30 µM | > 10 µM | > 10 µM | > 10 µM | > 10 µM | > 10 µM
CC(NCCc1ccc(O)cc1)C(O)c1ccc(O)cc1 (stereo not given) [RITODRINE] | > 30 µM | > 10 µM | > 30 µM | > 30 µM | 16.3 µM | > 30 µM | 4.71 µM and 4.14 µM | > 30 µM | > 30 µM | > 30 µM | > 30 µM | – | > 30 µM | > 30 µM | > 30 µM | > 30 µM | 19.5 µM and 12.3 µM
C=CC(N)CCC(=O)O (stereo not given) [VIGABATRIN] | – | > 10 µM | > 10 µM | > 10 µM | 12.2 µM | > 30 µM | > 10 µM | > 30 µM | – | > 10 µM | > 10 µM | > 30 µM | > 10 µM | > 10 µM | > 10 µM | > 10 µM | 19.5 µM
